“Also recorded” adds a separate entry of the source.
Each molecule was assayed on serum antibodies raised against the conjugate consisting of compound 3 covalently linked to CRM197 (assay: Carbohydrate microarray analysis of serum from Balb/c mice immunized with the conjugate of compound 3 and CRM197). Conditions: pooled serum of Balb/c mice immunized with compound 3-CRM197 conjugate; compounds printed at 1 mM; FIG. 3.
Format: binding
Method: FIG. 3: left side: Analysis of pooled serum that was obtained 4 weeks after 1st immunization of Balb/c mice with a conjugate consisting of CRM197 covalently linked to compound 3; right side: Printing pattern: all compounds were printed in a 3×3 pattern and in a concentration of 1 mM; left, upper corner: compound 5; left lower corner: compound 3; right, upper corner: compound 4; right lower corner: (α-D-Mannopyranosyl)-(1→2)-(α-D-mannopyranosyl)-(1→2)-(α-D-mannopyranosyl)-(1→6)-(α-D-mannopyranosyl)-(1→4)-(2-amino-2-deoxy-α-D-glucopyranosyl)-(1→6)-1-O-(6-thiohexyl phosphono)-D-myo-inositol (Chem. Eur. J. 2005, 11, 2493).
Three female BALB/c mice were immunized s.c. with 35 μg conjugate, prepared as described in example 11a, in Freund's complete adjuvant. […] After the second immunization, serum was collected and the antibody titer (total IgG) was determined by microarray six weeks after the first immunization.

Molecule	binding of serum antibodies to the glycan printed on the microarray
6-O-(aminoethyl phosphono)-α-D-mannopyranosyl-(1→2)-α-D-mannopyranosyl-(1→6)-4-O-(α-D-glucopyranosyl-(1→4)-2-deoxy-2-acetamido-β-D-galactopyranosyl)-α-D-manno-pyranosyl-(1→4)-2-amino-2-deoxy-α-D-glucopyranosyl-(1→6)-1-O-(thiohexyl phosphono)-D-myo-inositol [compound 4]	not
N[C@H]1[C@@H](O[C@@H]2[C@@H](O)[C@H](O)[C@@H](O)[C@@H](O)[C@H]2OP(=O)(O)OCCCCCCS)O[C@H](CO)[C@@H](O[C@H]2O[C@H](CO[C@H]3O[C@H](CO)[C@@H](O)[C@H](O)[C@@H]3O[C@H]3O[C@H](CO)[C@@H](O)[C@H](O)[C@@H]3O[C@H]3O[C@H](CO)[C@@H](O)[C@H](O)[C@@H]3O)[C@@H](O)[C@H](O)[C@@H]2O)[C@@H]1O [(α-D-Mannopyranosyl)-(1→2)-(α-D-mannopyranosyl)-(1→2)-(α-D-mannopyranosyl)-(1→6)-(α-D-mannopyranosyl)-(1→4)-(2-amino-2-deoxy-α-D-glucopyranosyl)-(1→6)-1-O-(6-thiohexylphosphono)-D-myo-inositol, reference compound]	not
CC(=O)NC1C(O)[C@@H](O)C(CO)O[C@H]1O[C@@H]1C(CO[C@H]2OC(CO)[C@@H](O)C(O)C2O[C@H]2OC(COP(=O)(O)OCCN)[C@@H](O)C(O)C2O)O[C@H](O[C@@H]2C(CO)O[C@H](O[C@@H]3C(O)C(O)[C@@H](O)C(O)C3OP(=O)(O)OCCCCCCS)C(N)C2O)C(O)C1O (stereo partly drawn) [compound 3, 6-O-(aminoethylphosphono)-α-D-mannopyranosyl-(1→2)-α-D-mannopyranosyl-(1→6)-4-O-(2-deoxy-2-acetamido-β-D-galactopyranosyl)-α-D-mannopyranosyl-(1→4)-2-amino-2-deoxy-α-D-glucopyranosyl-(1→6)-1-O-(thiohexylphosphono)-D-myo-inositol]	specifically evoke a binding; also recorded: bound
CC(=O)NC1C(O)[C@@H](O)C(CO)O[C@H]1O[C@@H]1C(CO[C@H]2OC(CO)[C@@H](O)C(O)C2O[C@H]2OC(COP(=O)(O)OCCN)[C@@H](O)C(O)C2O)O[C@H](O[C@@H]2C(CO)O[C@H](O[C@@H]3C(O)C(O)[C@@H](O)C(O)C3OP(=O)(O)OCCCCCCS)C(N)C2O)C(OP(=O)(O)OCCN)C1O (stereo partly drawn) [compound 5, 6-O-(aminoethylphosphono)-α-D-mannopyranosyl-(1→2)-α-D-mannopyranosyl-(1→6)-2-O-(aminoethylphosphono)-4-O-(2-deoxy-2-acetamido-β-D-galactopyranosyl)-α-D-mannopyranosyl-(1→4)-2-amino-2-deoxy-α-D-glucopyranosyl-(1→6)-1-O-(thiohexylphosphono)-D-myo-inositol]	not and did not show cross reactivity

— patent US9802974B2, “Synthesis of diverse glycosylphosphatidylinositol glycans from Toxoplasma gondii and their application as vaccines and diagnostics” (Max-Planck-Gesellschaft zur Förderung der Wissenschaften …, priority 2012, dated 2017)
